Data as given in patent US20250236608A1, “EGFR INHIBITORS” (Blueprint Medicines Corporation, priority 2022, published 2025).

Columns and labels:
EGFR (d746-750) = EGFR (d746-750) (Homo sapiens (Human), UniProt P00533, DEL746-750); experiment: Biochemical EGFR inhibition assay, EGFR (d746-750); conditions: Caliper mobility shift; 1.0 mM ATP or ATP Km; read-out: Enz EGFR_Exon19-del746-750 IC50
Experimental: (§1) Reactions proceeded until between 10% to 20% total peptides were phosphorylated at room temperature (25° C.) and were terminated with 35 mM 2,2′,2″,2″-(ethane-1,2-diyldinitrilo)tetraacetic acid (EDTA). Product was detected using the Caliper mobility shift detection method where the phosphorylated peptide (product) and substrate were electrophoretically separated and measured. Percent activity was plotted against log concentration of compound and points to generate an apparent IC50.

EGFR L858R = EGFR L858R (Homo sapiens (Human), UniProt P00533, L858R); experiment: Biochemical EGFR inhibition assay, EGFR L858R; conditions: Caliper mobility shift; 1.0 mM ATP or ATP Km; read-out: Enz EGFR_L858R IC50
Experimental: as §1

[1] = target: pEGFR (Tyr1068) in PC-9 cells (Ex19Del) (Homo sapiens (Human), UniProt P00533, DEL746-750); experiment: PC-9 pEGFR AlphaLISA assay; type: cell-based; conditions: 4 hours incubation, p-EGFR (Tyr1068) AlphaLISA, read-out: Ext pEGFR_PC-9 Ex19Del IC50
Experimental: PC-9/A431 pEGFR AlphaLISA Assays
Inhibitory effects of compounds were evaluated in cellular assays that measure level of intracellular phosphorylation of EGFR in PC-9 (ECACC, #90071810, Milipore/Sigma) and A431 cell lines (ATCC, CRL-1555) using AlphaLISA sureFire ultra p-EGFR (Tyr1068) assay kit (PerkinElmer, ALSU-PEGFR-A50K). PC-9 cells were seeded at 3.125×10^5 cells/ml in 40 μL phenol-free DMEM supplemented with 10% FBS per well of a 384 well plate (Corning, 3764), while A431 were seeded at 3.125×10^5 cells/ml in 40 μL in phenol-free DMEM with 0.5% FBS. Cells were allowed to adhere overnight at 37° C./5% CO2. On the next day, compounds were transferred at 4-fold, 10-point serial dilution from compound source plate to cell plates using liquid handler Echo550 and were incubated at 37° C./5% CO2 for 4 hours. A431 cells were stimulated prior harvesting for 10 min with EGF at final concentration of 30 ng/ml in the incubator. Medium was removed from the plates and cells were lysed with 10 μL of 1× AlphaLISA lysis buffer (supplemented with 1× protease/phosphatase inhibitor cocktail) followed by shaking at 600 rpm for 30 minutes at room temperature. Lysates were transferred to Optiplate (Apricot designs) and 5 μl of 1× acceptor bead mix (prepared just before use) was added to each well followed by incubation at room temperature for 1.5-2 h in dark. Then 5 μL of freshly-made donor bead mix is added to each well under subdued lighting or green filters, was mixed well on the shaker and the plate was sealed and left for an overnight incubation at room temperature in dark. On the next day, the plate was read the Envision using standard AlphaLisa settings. Percent of pEGFR inhibition was plotted against log concentration of compounds to generate IC50 values.

Sequence of EGFR L858R (P00533 25-1210 L858R): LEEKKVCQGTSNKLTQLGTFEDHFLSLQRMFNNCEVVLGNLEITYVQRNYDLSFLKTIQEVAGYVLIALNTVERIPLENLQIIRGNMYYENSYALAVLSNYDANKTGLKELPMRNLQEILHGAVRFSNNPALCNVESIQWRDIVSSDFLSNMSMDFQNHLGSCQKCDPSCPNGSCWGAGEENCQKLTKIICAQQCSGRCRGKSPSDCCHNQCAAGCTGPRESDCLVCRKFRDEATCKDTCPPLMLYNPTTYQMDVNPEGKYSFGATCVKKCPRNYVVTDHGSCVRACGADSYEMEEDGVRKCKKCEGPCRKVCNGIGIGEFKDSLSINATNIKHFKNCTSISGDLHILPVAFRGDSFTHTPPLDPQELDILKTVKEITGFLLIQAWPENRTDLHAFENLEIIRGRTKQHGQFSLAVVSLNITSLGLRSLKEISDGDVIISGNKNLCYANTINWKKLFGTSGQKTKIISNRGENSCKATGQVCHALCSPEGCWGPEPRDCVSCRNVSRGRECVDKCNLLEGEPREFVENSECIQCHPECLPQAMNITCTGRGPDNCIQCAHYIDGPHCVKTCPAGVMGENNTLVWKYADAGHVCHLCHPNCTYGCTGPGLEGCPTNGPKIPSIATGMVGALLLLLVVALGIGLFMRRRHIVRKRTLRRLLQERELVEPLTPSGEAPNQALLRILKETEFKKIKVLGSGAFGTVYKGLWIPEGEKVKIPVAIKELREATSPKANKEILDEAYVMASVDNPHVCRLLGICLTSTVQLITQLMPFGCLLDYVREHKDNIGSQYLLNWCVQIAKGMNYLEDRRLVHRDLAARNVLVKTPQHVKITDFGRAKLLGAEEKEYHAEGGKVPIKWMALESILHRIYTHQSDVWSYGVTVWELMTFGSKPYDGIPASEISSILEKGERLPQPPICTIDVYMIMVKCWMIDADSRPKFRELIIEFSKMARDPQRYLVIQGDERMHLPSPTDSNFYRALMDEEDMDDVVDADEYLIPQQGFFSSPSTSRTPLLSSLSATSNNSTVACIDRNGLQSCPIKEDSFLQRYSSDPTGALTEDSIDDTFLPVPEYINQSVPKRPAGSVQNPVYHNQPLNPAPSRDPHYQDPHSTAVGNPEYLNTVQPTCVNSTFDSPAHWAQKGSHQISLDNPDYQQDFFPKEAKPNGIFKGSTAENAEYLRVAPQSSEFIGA
Sequence of EGFR (d746-750) (P00533 other isoform, or with tags, fused parts or gaps del 1-694/del 746-750 limits assumed): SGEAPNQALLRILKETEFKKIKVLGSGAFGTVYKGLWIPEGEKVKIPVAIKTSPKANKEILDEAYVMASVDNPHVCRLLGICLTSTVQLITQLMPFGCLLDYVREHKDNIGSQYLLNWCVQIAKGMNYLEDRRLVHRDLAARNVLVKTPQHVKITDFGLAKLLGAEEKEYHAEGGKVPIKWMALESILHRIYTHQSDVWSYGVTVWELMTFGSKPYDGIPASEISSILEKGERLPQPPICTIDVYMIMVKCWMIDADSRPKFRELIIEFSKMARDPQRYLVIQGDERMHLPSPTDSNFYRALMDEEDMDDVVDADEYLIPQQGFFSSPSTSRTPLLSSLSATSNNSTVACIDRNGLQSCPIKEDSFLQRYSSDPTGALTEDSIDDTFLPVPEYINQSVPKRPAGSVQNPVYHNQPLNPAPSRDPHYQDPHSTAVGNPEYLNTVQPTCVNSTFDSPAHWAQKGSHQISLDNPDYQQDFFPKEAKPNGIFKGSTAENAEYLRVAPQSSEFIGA
Sequence of pEGFR (Tyr1068) in PC-9 cells (Ex19Del) (P00533 other isoform, or with tags, fused parts or gaps del 746-750): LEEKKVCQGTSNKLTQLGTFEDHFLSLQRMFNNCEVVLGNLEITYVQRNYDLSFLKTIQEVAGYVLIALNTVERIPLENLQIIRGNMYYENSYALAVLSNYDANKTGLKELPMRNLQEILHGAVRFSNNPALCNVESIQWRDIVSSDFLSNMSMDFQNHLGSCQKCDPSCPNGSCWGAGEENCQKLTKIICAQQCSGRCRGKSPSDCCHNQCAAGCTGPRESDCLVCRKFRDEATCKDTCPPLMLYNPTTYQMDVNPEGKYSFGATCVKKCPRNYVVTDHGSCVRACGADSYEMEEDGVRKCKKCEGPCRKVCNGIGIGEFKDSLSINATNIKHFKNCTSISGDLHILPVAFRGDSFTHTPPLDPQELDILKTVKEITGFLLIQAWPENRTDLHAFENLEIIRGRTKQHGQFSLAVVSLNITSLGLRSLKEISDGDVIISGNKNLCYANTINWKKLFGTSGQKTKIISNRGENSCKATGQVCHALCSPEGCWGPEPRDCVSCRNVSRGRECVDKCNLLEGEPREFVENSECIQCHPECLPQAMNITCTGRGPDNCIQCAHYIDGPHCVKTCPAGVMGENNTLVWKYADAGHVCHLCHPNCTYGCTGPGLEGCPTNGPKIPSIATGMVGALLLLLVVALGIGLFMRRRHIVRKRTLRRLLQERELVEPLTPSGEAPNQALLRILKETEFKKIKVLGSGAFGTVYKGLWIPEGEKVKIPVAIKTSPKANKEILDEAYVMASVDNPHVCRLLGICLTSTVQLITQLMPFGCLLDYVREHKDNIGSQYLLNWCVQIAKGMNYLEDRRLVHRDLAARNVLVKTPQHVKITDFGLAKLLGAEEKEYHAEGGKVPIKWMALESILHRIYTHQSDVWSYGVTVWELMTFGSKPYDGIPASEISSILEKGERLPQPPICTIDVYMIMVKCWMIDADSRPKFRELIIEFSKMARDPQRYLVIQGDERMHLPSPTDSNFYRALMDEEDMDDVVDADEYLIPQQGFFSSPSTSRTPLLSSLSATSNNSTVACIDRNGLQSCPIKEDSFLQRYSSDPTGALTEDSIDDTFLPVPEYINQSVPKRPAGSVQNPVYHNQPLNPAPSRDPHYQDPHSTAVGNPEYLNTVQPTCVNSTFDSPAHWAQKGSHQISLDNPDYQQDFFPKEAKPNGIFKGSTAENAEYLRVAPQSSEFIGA

Structure (SMILES)	IC50 (EGFR (d746-750))	IC50 (EGFR L858R)	IC50 [1]
COc1cc2ncnc(-c3cn(C)nc3-c3ccccc3)c2cc1OC(=O)N1CCO[C@@H](C)[C@@H]1C [Example 72, 7-methoxy-4-(1-methyl-3-phenyl-1H-pyrazol-4-yl)quinazolin-6-yl (2S,3S)-2,3-dimethylmorpholine-4-carboxylate]	1.7 nM	3.8 nM	5.1 nM
COc1cc2ncnc(-c3c[nH]nc3-c3ccccc3)c2nc1NC(=O)C1(C(F)(F)F)CC1 [Example 372, N-(7-methoxy-4-(3-phenyl-1H-pyrazol-4-yl)pyrido[3,2-d]pyrimidin-6-yl)-1-(trifluoromethyl)cyclopropane-1-carboxamide]	0.7 nM	1.6 nM	1.5 nM
COc1cc2ncnc(-c3cn(C)nc3-c3ccccc3F)c2nc1NC(=O)C1(C(F)(F)F)CC1 [Example 317, N-(4-(3-(2-fluorophenyl)-1-methyl-1H-pyrazol-4-yl)-7-methoxypyrido[3,2-d]pyrimidin-6-yl)-1-(trifluoromethyl)cyclopropane-1-carboxamide]	1.2 nM	2.7 nM	1.5 nM
COc1cc2ncnc(-c3cn(C)nc3-c3ccccc3)c2cc1N1CCOCC1 [Example 160, 4-(7-methoxy-4-(1-methyl-3-phenyl-1H-pyrazol-4-yl)quinazolin-6-yl)morpholine]	2.9 nM	20 nM	8.3 nM
COc1cc2ncnc(-c3cn(C)nc3-c3ccccc3)c2cc1NC(=O)[C@@H]1CCN(C)C1 [Example 210, (R)-N-(7-methoxy-4-(1-methyl-3-phenyl-1H-pyrazol-4-yl)quinazolin-6-yl)-1-methylpyrrolidine-3-carboxamide]	0.6 nM	1.1 nM	1.7 nM
Cn1cc(-c2ccc3c(-c4c[nH]nc4-c4ccccc4F)ncnc3c2)cn1 [Example 443, 4-[3-(2-fluorophenyl)-1H-pyrazol-4-yl]-7-(1-methyl-1H-pyrazol-4-yl)quinazoline]	0.4 nM	0.8 nM	0.3 nM
Cn1cc(-c2ncnc3cc(O)c(NC(=O)C4(C(F)(F)F)CC4)nc23)c(-c2ccccc2)n1 [Example 464, N-[7-hydroxy-4-(1-methyl-3-phenyl-1H-pyrazol-4-yl)pyrido[3,2-d]pyrimidin-6-yl]-1-(trifluoromethyl)cyclopropane-1-carboxamide]	0.3 nM	0.9 nM	1.4 nM
COc1cc2ncnc(-c3cn(C)nc3-c3ccccc3)c2cc1NC(=O)C1C2COCC21 (stereo not drawn) [Example 223, N-(7-methoxy-4-(1-methyl-3-phenyl-1H-pyrazol-4-yl)quinazolin-6-yl)-3-oxabicyclo[3.1.0]hexane-6-carboxamide]	2.1 nM	2.9 nM	3.2 nM
[2H]C([2H])([2H])Oc1cc2ncnc(-c3cnn(C([2H])([2H])[2H])c3-c3ccccc3)c2nc1NC(=O)C1(C(F)(F)F)CC1 [Example 487, N-(7-(methoxy-d3)-4-(1-(methyl-d3)-5-phenyl-1H-pyrazol-4-yl)pyrido[3,2-d]pyrimidin-6-yl)-1-(trifluoromethyl)cyclopropane-1-carboxamide]	19.5 nM	50 nM	173 nM
COc1cc2ncnc(-c3cn(C)nc3-c3ccccc3)c2cc1O[C@@H]1CN(C)C[C@@H]1F [Example 5, 6-(((3R,4S)-4-fluoro-1-methylpyrrolidin-3-yl)oxy)-7-methoxy-4-(1-methyl-3-phenyl-1H-pyrazol-4-yl)quinazoline]	2 nM	3 nM	4.6 nM
COc1cc2ncnc(-c3cn(C)nc3-c3ccccc3F)c2cc1OC(=O)N1CCOC[C@@H]1C [Example 74, 4-(3-(2-fluorophenyl)-1-methyl-1H-pyrazol-4-yl)-7-methoxyquinazolin-6-yl (S)-3-methylmorpholine-4-carboxylate]	662 nM	829 nM	4.5 nM

More lines, now with the values ahead:

IC50 (EGFR (d746-750))	IC50 (EGFR L858R)	IC50 [1]	Structure (SMILES)
1.9 nM	3.7 nM	6 nM	CCC(=O)Nc1cc2c(-c3cn(C)nc3-c3ccccc3)ncnc2cc1OCC1COC1 [Example 277, N-(4-(1-methyl-3-phenyl-1H-pyrazol-4-yl)-7-(oxetan-3-ylmethoxy)quinazolin-6-yl)propionamide]
1.6 nM	6.1 nM	2.5 nM	COc1cc2ncnc(-c3cn(C)nc3-c3ccccc3)c2nc1OC(C)c1cn(C)nn1 (stereo not drawn) [Example 34, 7-methoxy-6-(1-(1-methyl-1H-1,2,3-triazol-4-yl)ethoxy)-4-(1-methyl-3-phenyl-1H-pyrazol-4-yl)pyrido[3,2-d]pyrimidine]
2.1 nM	3.9 nM	13.6 nM	COc1cc2ncnc(-c3cn(C)nc3-c3ccccc3)c2cc1CO [Example 119, (7-methoxy-4-(1-methyl-3-phenyl-1H-pyrazol-4-yl)quinazolin-6-yl)methanol]
1.6 nM	2.7 nM	1.1 nM	COc1cc2ncnc(-c3cn(C)nc3-c3ccccc3)c2cc1NC(=O)C1CC(OC)C1 (stereo not drawn) [Example 215, 3-methoxy-N-(7-methoxy-4-(1-methyl-3-phenyl-1H-pyrazol-4-yl)quinazolin-6-yl)cyclobutane-1-carboxamide]
1.7 nM	30.4 nM	5.9 nM	CCOc1cc2ncnc(-c3cn(C)nc3-c3ccccc3)c2nc1NC(=O)C12CC(N(C)C)(C1)C2 [Example 420, 3-(dimethylamino)-N-(7-ethoxy-4-(1-methyl-3-phenyl-1H-pyrazol-4-yl)pyrido[3,2-d]pyrimidin-6-yl)bicyclo[1.1.1]pentane-1-carboxamide]
1.9 nM	3.5 nM	2.8 nM	CCOc1cc2ncnc(-c3cn(C)nc3-c3ccccc3)c2cc1OC1CCN(C(=O)CC)CC1 [Example 10, 1-(4-((7-ethoxy-4-(1-methyl-3-phenyl-1H-pyrazol-4-yl)quinazolin-6-yl)oxy)piperidin-1-yl) propan-1-one]
0.8 nM	1.3 nM	0.5 nM	COc1cc2ncnc(-c3cn(C)nc3-c3ccccc3)c2cc1NC(=O)[C@H]1CCN(C)C[C@@H]1F [Example 285, (3R,4R)-3-fluoro-N-(7-methoxy-4-(1-methyl-3-phenyl-1H-pyrazol-4-yl)quinazolin-6-yl)-1-methylpiperidine-4-carboxamide]
2.4 nM	4.1 nM	8.5 nM	COc1cc2ncnc(-c3cn(C)nc3-c3ccccc3)c2cc1O[C@H]1CN(C)C[C@H]1F [Example 4, 6-(((3S,4R)-4-fluoro-1-methylpyrrolidin-3-yl)oxy)-7-methoxy-4-(1-methyl-3-phenyl-1H-pyrazol-4-yl)quinazoline]
1.4 nM	2.2 nM	2.1 nM	CCC(=O)Nc1cc2c(-c3cn(C4COC4)nc3-c3ccccc3)ncnc2cc1OC [Example 249, N-(7-methoxy-4-(1-(oxetan-3-yl)-3-phenyl-1H-pyrazol-4-yl)quinazolin-6-yl)propionamide]
1.7 nM	2.8 nM	5.6 nM	COc1cc2ncnc(-c3cn(C)nc3-c3ccccc3)c2cc1NC(=O)C1CCN1 (stereo not drawn) [Example 228, N-(7-methoxy-4-(1-methyl-3-phenyl-1H-pyrazol-4-yl)quinazolin-6-yl)azetidine-2-carboxamide]
0.7 nM	2.2 nM	1.5 nM	[2H]C([2H])([2H])Oc1cc2ncnc(-c3cn(C([2H])([2H])[2H])nc3-c3ccccc3)c2nc1NC(=O)C1(C(F)(F)F)CC1 [Example 486, N-(7-(methoxy-d3)-4-(1-(methyl-d3)-3-phenyl-1H-pyrazol-4-yl)pyrido[3,2-d]pyrimidin-6-yl)-1-(trifluoromethyl)cyclopropane-1-carboxamide]
1.9 nM	4 nM	4.3 nM	COc1cc2ncnc(-c3cn(C)nc3-c3ccccc3)c2cc1NC(=O)C1(CN(C)C)CC1 [Example 189, 1-((dimethylamino)methyl)-N-(7-methoxy-4-(1-methyl-3-phenyl-1H-pyrazol-4-yl)quinazolin-6-yl)cyclopropane-1-carboxamide]
